Results: US20030215462A1, “Use of UGT inhibitors to increase bioavailability” (priority 2001, published 2003)
Where “and” joins values, the source holds several entries; their conditions need not be identical. Identical values can stand only once. Each block holds one molecule with its values, some of them ahead of it.

Columns and labels:
Assay type in all cases: biochemical
[1] = molecular target: T1, UGT enzymes of human liver microsomes (Homo sapiens, UniProt P16662); assay: Inhibition of zidovudine glucuronidation in human liver microsomes; conditions: liver lot 062101
T1 construct: residual metabolism (percentage of control), zidovudine glucuronidation; other: liver lot 062101; residual metabolism (percentage of control), zidovudine glucuronidation; residual metabolism (percentage of control)
T1 sequence (P16662 1-529): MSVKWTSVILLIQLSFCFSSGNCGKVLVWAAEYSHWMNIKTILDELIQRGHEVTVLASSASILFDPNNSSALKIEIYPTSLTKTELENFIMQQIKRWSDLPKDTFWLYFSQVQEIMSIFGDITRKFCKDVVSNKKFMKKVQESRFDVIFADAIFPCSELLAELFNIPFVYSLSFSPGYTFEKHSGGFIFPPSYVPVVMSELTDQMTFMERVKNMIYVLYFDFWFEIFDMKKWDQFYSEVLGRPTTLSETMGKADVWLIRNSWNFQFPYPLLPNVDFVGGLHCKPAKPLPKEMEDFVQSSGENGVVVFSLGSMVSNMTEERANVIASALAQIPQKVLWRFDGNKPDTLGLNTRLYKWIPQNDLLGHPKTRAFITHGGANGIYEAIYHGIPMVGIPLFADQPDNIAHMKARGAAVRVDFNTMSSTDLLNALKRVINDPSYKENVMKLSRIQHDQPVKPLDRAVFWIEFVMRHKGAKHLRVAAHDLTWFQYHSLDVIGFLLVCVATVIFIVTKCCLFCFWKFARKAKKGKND
Experimental: Compounds were eluted using a binary solvent gradient system where solvent A was dilute phosphoric acid (pH 3) and solvent B was acetonitrile.
Standardized incubations utilized 500 μM zidovudine substrate, 1 mg/ml microsomal protein, 5 mM UDPGA and a 30 min incubation time. […] Int.

[2] = test system: UGT enzymes of human liver microsomes; assay: Inhibition of raloxifene glucuronidation (G1, G2) in human liver microsomes; conditions: for % of control metabolism (SD, n = 3), raloxifene glucuronide G1 / % of control metabolism (SD, n = 3), raloxifene glucuronide G2: human liver microsomes 250 μg/ml, 15 min
From the text: (§1) Compounds were eluted using a binary solvent gradient system. […] Solvent B was methanol. […] Detection was at 280 nm.

[3] = test system: UGT enzymes of human liver microsomes; assay: Inhibition of estradiol (E2) glucuronidation in human liver microsomes; conditions: E2 50 μM, inhibitor 10 μM
From the text: (§2) Compounds were eluted using a binary solvent gradient system where solvent A was dilute phosphoric acid (pH 3) and solvent B was 80:20 acetonitrile-methanol. […] Detection was at 280 nm.

[4] = test system: T2, UGT enzymes of human liver microsomes; assay: Inhibition of 2ME2 glucuronidation (MG1, MG2) in human liver microsomes; conditions: liver 062101, 2ME2 50 μM
T2 construct: other: liver 062101
From the text: as §2

[5] = test system: UGT enzymes of pooled human jejunum microsomes; assay: Inhibition of raloxifene glucuronidation (G1, G2) in pooled human jejunum microsomes; conditions: jejunum HJ61; inhibitor 10 μM
Experimental: as §1
Standardized incubations utilized […] microsomal protein, 1 mM UDPGA and a 30 min incubation time.

[6] = test system: UGT enzymes of pooled human jejunum microsomes; assay: Inhibition of 2ME2 glucuronidation (MG1) in pooled human jejunum microsomes; conditions: jejunum HJ61, 2ME2 50 μM
From the text: as §2

[7] = test system: T3, UGT enzymes of human liver microsomes; assay: Inhibition of labetalol glucuronidation (LG1, LG2) in human liver microsomes; conditions: labetalol 50 μM
T3 construct: residual metabolism (percentage of control), labetalol LG1; other: labetalol 50 μM; residual metabolism (percentage of control), labetalol LG1; residual metabolism (percentage of control), labetalol LG2; inhi
Experimental: Supernatants were analyzed by HPLC with fluorescence detection.
Compounds were eluted using a binary solvent gradient system where solvent A was 5:5:90 tetrahydrofuran-acetonitrile-(NH4)2HPO4 50 mM, while solvent B was 25:25:50 tetrahydrofuran-acetonitrile-(NH4)2HPO4 50 mM. Solvent flow rate was 0.75 ml/min and the column temperature was ambient. […] Labetalol and metabolites were measured by fluorescence detection using a Jasco model FP920 detector. Excitation and emission wavelengths were 370 nm 418 nm respectively. Retention times for salicylamide internal standard and labetalol were 6.6 min and 15.0 min respectively.

[8] = inhibitor 25 μM, raloxifene 50 μM
[9] = inhibitor 50 μM, raloxifene 50 μM
[10] = inhibitor 100 μM, raloxifene 50 μM
[11] = inhibitor 500 μM, raloxifene 50 μM
[12] = raloxifene 50 μM, inhibitor 25 μM
[13] = raloxifene 50 μM, inhibitor 50 μM
[14] = raloxifene 50 μM, inhibitor 100 μM
[15] = liver lot 032101, inhibitor 10 μM
[16] = liver lot 062101, inhibitor 10 μM
[17] = liver lot 083000, inhibitor 10 μM
[18] = raloxifene 50 μM, inhibitor 10 μM

- residual metabolism (percentage of control), zidovudine glucuronidation ([1]; inhibitor 500 μM): 77 (2) %
- % of control metabolism (SD, n = 3), raloxifene glucuronide G1 [2, 8]: 58 (4) %
- % of control metabolism (SD, n = 3), raloxifene glucuronide G1 [2, 9]: 45 (6) %
- % of control metabolism (SD, n = 3), raloxifene glucuronide G1 [2, 10]: 48 (2) %
- % of control metabolism (SD, n = 3), raloxifene glucuronide G1 [2, 11]: 21 (1) %
- % of control metabolism (SD, n = 3), raloxifene glucuronide G2 [2, 8]: 60 (4) %
- % of control metabolism (SD, n = 3), raloxifene glucuronide G2 [2, 9]: 48 (6) %
- % of control metabolism (SD, n = 3), raloxifene glucuronide G2 [2, 10]: 52 (3) %
- % of control metabolism (SD, n = 3), raloxifene glucuronide G2 [2, 11]: 33 (2) %
- % of control metabolism, raloxifene G1 [2, 12]: 58 (4) %
- % of control metabolism, raloxifene G2 [2, 12]: 60 (4) %
- % of control metabolism, raloxifene G1 [2, 13]: 45 (6) %
- % of control metabolism, raloxifene G2 [2, 13]: 48 (6) %
- % of control metabolism, raloxifene G1 [2, 14]: 48 (2) %
- % of control metabolism, raloxifene G2 [2, 14]: 52 (3) %
SMILES: CCCOC(=O)c1cc(O)c(O)c(O)c1 [Propyl gallate]

- residual metabolism (% of control), E2-3-β-D-glucuronide ([3]; liver 032101): 14 (1) %
- residual metabolism (% of control), E2-17-β-D-glucuronide ([3]; liver 032101): 75 (3) %
- residual metabolism (% of control), E2-3-β-D-glucuronide ([3]; liver 062101): 26 (4) %
- residual metabolism (% of control), E2-17-β-D-glucuronide ([3]; liver 062101): 72 (3) %
- residual metabolism (% of control), 2ME2 MG1 ([4]; inhibitor 25 μM): 13 (1) %
- residual metabolism (% of control), 2ME2 MG2 ([4]; inhibitor 25 μM): 49 (7) %
- residual metabolism (% of control), 2ME2 MG1 ([4]; inhibitor 50 μM): <LOQ
- residual metabolism (% of control), 2ME2 MG2 ([4]; inhibitor 50 μM): 28 (1) %
- residual metabolism (percentage of control), zidovudine glucuronidation ([1]; inhibitor 50 μM): 54 (2) % and 50 (4) %
- residual metabolism (percentage of control), zidovudine glucuronidation ([1]; inhibitor 100 μM): 42 (2) % and 37 (4) %
- residual metabolism (percentage of control), zidovudine glucuronidation ([1]; inhibitor 200 μM): 20 (2) %
- % of control metabolism, raloxifene G1 [5]: 39 (7) %
- % of control metabolism, raloxifene G2 [5]: 47 (8) %
- residual metabolism (% of control), 2ME2 MG1 ([6]; inhibitor 2 μM): 63 (1) %
- residual metabolism (% of control), 2ME2 MG1 ([6]; inhibitor 5 μM): 49 (1) %
- residual metabolism (% of control), 2ME2 MG1 ([6]; inhibitor 10 μM): 42 (1) %
- residual metabolism (% of control), 2ME2 MG1 ([6]; inhibitor 25 μM): 5 (0) %
- residual metabolism (% of control), 2ME2 MG1 ([6]; inhibitor 50 μM): <LOQ
- residual metabolism (percentage of control), labetalol LG1 ([7]; inhibitor 50 μM): 42 (1) %
- residual metabolism (percentage of control), labetalol LG2 ([7]; inhibitor 50 μM): 37 (2) %
- residual metabolism (percentage of control), labetalol LG1 ([7]; inhibitor 100 μM): 19 (1) % and 21 (1) %
- residual metabolism (percentage of control), labetalol LG2 ([7]; inhibitor 100 μM): 9 (0) % and 13 (3) %
- % of control metabolism, raloxifene G1 [2, 15]: 51 (4) %
- % of control metabolism, raloxifene G2 [2, 15]: 59 (3) %
- % of control metabolism, raloxifene G1 [2, 16]: 61 (4) %
- % of control metabolism, raloxifene G2 [2, 16]: 54 (4) %
- % of control metabolism, raloxifene G1 [2, 17]: 27 (1) %
- % of control metabolism, raloxifene G2 [2, 17]: 30 (1) %
- % of control metabolism, raloxifene G1 [2, 18]: 27 (1) %
- % of control metabolism, raloxifene G2 [2, 18]: 30 (1) %
- % of control metabolism, raloxifene G1 [2, 12]: 7 (1) %
- % of control metabolism, raloxifene G2 [2, 12]: 12 (2) %
- % of control metabolism, raloxifene G1 [2, 13]: 0 (0), 0 (0) %
- % of control metabolism, raloxifene G2 [2, 13]: 0 (0), 0 (0) %
- % of control metabolism, raloxifene G1 [2, 14]: 0 (0), 0 (0) %
- % of control metabolism, raloxifene G2 [2, 14]: 0 (0), 0 (0) %
SMILES: O=C(OC[C@H]1O[C@@H](OC(=O)c2cc(O)c(O)c(OC(=O)c3cc(O)c(O)c(O)c3)c2)[C@H](OC(=O)c2cc(O)c(O)c(OC(=O)c3cc(O)c(O)c(O)c3)c2)[C@@H](OC(=O)c2cc(O)c(O)c(OC(=O)c3cc(O)c(O)c(O)c3)c2)[C@@H]1OC(=O)c1cc(O)c(O)c(OC(=O)c2cc(O)c(O)c(O)c2)c1)c1cc(O)c(O)c(OC(=O)c2cc(O)c(O)c(O)c2)c1 [Tannic acid]
